Target: T1, PI3Kδ (Homo sapiens, UniProt O00329)
T1 construct: Full length p110 subunits of PI3k α, β and δ, N-terminally labeled with polyHis tag; polyHis (N); made in house; host or cells: Sf9 insect cells (baculovirus)
Test: PI3Kδ Alphascreen assay
Type: biochemical

T1 sequence (O00329 whole entry): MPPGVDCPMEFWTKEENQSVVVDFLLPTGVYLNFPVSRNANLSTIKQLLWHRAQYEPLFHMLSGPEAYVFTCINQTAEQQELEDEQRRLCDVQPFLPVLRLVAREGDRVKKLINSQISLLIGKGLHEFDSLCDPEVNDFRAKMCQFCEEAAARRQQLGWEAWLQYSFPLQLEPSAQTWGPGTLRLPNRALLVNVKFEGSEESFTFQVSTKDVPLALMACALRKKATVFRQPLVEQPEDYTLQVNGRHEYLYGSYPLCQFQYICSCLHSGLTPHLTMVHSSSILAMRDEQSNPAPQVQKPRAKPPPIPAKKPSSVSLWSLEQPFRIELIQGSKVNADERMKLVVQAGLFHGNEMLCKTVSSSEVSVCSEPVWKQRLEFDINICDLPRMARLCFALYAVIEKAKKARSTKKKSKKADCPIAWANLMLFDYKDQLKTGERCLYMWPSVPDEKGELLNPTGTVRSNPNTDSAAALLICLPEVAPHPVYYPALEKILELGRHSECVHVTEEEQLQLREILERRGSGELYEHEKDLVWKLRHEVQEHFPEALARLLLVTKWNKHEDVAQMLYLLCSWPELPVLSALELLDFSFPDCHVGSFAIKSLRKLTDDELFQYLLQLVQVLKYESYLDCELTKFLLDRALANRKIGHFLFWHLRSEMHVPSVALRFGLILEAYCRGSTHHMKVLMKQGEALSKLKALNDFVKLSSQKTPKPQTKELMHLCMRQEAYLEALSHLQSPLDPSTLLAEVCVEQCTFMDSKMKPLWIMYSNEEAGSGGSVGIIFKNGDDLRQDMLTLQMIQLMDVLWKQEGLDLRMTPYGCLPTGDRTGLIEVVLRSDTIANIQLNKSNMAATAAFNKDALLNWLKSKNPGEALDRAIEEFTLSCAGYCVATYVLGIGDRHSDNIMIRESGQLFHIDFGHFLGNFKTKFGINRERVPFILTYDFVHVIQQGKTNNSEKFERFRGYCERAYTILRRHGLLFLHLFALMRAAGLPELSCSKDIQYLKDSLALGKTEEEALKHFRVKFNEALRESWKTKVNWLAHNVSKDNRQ
T1 sequence (P27986 whole entry partner): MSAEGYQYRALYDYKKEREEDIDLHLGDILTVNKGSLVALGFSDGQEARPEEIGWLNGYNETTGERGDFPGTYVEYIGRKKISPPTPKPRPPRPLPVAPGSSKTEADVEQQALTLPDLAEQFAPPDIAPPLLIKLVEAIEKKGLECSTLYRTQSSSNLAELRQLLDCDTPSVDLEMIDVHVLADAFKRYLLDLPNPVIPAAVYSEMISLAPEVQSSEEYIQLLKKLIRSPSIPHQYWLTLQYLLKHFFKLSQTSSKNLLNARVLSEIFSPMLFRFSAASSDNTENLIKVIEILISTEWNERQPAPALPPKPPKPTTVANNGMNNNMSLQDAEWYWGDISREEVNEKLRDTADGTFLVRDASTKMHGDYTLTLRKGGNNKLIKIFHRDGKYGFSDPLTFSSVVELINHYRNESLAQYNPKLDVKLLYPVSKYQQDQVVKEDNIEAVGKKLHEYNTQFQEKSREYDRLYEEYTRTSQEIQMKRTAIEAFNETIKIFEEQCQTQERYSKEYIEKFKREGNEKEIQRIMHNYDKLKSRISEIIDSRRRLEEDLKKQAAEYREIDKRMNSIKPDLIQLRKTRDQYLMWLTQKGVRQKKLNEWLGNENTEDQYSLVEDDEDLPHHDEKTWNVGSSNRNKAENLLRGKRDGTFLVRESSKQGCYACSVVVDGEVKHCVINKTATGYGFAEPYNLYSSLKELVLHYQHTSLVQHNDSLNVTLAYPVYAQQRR

Ki [nM]	Structure (SMILES)
27.2	Cc1c(N2CCC2=O)nc2cc(F)cc(F)c2c1Nc1cncc(N2CCOCC2)c1 [1-(5,7-difluoro-3-methyl-4-((5-(4-morpholinyl)-3-pyridinyl)-amino)-2-quinolinyl)-2-azetidinone]
248	Cc1cc(C(F)(F)F)ccc1-c1nc2cc(F)cc(F)c2c(Nc2cc(N3CCOCC3)cnc2N2CCOCC2)c1C [N-(2,5-di-4-morpholinyl-3-pyridinyl)-5,7-difluoro-3-methyl-2-(2-methyl-4-(trifluoromethyl)phenyl)-4-quinolinamine]
15.9	Cc1c(N2CCNC[C@H]2C)nc2cc(F)cc(F)c2c1Nc1cncc(N2CCOCC2)c1 [5,7-difluoro-3-methyl-2-((2R)-2-methyl-1-piperazinyl)-N-(5-(4-morpholinyl)-3-pyridinyl)-4-quinolinamine]
14.3	Cc1ccnc(-c2nc3cc(F)ccc3c(Nc3cc(N4CCOCC4)cnc3N3CCOCC3)c2C(C)C)c1 [N-(2,5-di-4-morpholinyl-3-pyridinyl)-7-fluoro-3-(1-methylethyl)-2-(4-methyl-2-pyridinyl)-4-quinolinamine]
98.8	Cc1c(N2CCN(CC(C)(C)C)CC2)nc2cc(F)cc(F)c2c1Nc1cncc(N2CCOCC2)c1 [2-(4-(2,2-dimethylpropyl)-1-piperazinyl)-5,7-difluoro-3-methyl-N-(5-(4-morpholinyl)-3-pyridinyl)-4-quinolinamine]
15	COC(=O)N1CCN(c2nc3cc(F)cc(F)c3c(Nc3cncc(N4CCOCC4)c3)c2C)C[C@@H]1C [methyl (2S)-4-(5,7-difluoro-3-methyl-4-((5-(4-morpholinyl)-3-pyridinyl)amino)-2-quinolinyl)-2-methyl-1-piperazinecarboxylate]
3.59	COc1ccc(-c2ccc(N3CCOCC3)cc2Nc2c(C)c(-c3cc(C)ccn3)nc3cc(F)cc(F)c23)cn1 [5,7-difluoro-N-(2-(6-methoxy-3-pyridinyl)-5-(4-morpholinyl)-phenyl)-3-methyl-2-(4-methyl-2-pyridinyl)-4-quinolinamine]
22.6	Cc1c(-c2ccccn2)nc2c(Cl)c(F)ccc2c1Nc1cc(N2CCOCC2)cnc1N1CCOCC1 [8-chloro-N-(2,5-di-4-morpholinyl-3-pyridinyl)-7-fluoro-3-methyl-2-(2-pyridinyl)-4-quinolinamine]
0.821	Cc1ccnc(-c2nc3cc(F)cc(F)c3c(Nc3cc(N4CCOCC4)ccc3S(C)(=O)=O)c2C)c1 [5,7-difluoro-3-methyl-2-(4-methyl-2-pyridinyl)-N-(2-(methylsulfonyl)-5-(4-morpholinyl)phenyl)-4-quinolinamine]
54.4	Cc1c(N2CCN(C(=O)c3ncc[nH]3)CC2)nc2cc(F)cc(F)c2c1Nc1cncc(N2CCOCC2)c1 [5,7-difluoro-2-(4-(1H-imidazol-2-ylcarbonyl)-1-piperazinyl)-3-methyl-N-(5-(4-morpholinyl)-3-pyridinyl)-4-quinolinamine]
11.2	Cc1c(-c2cc([N+](=O)[O-])ccc2F)nc2cc(F)ccc2c1Nc1cc(N2CCOCC2)cnc1N1CCOCC1 [N-(2,5-di-4-morpholinyl-3-pyridinyl)-7-fluoro-2-(2-fluoro-5-nitrophenyl)-3-methyl-4-quinolinamine]
21.4	Cc1c(-c2cccnc2)nc2cc(F)cc(F)c2c1Nc1cc(N2CCOC[C@@H]2C)cnc1N1CCOCC1 [5,7-difluoro-3-methyl-N-(5-((3S)-3-methyl-4-morpholinyl)-2-(4-morpholinyl)-3-pyridinyl)-2-(3-pyridinyl)-4-quinolinamine]
493	Cc1c(N2CCN(CC(F)(F)F)CC2)nc2cc(F)cc(F)c2c1N(CC(F)(F)F)c1cncc(N2CCOCC2)c1 [5,7-difluoro-3-methyl-N-(5-(4-morpholinyl)-3-pyridinyl)-N-(2,2,2-trifluoroethyl)-2-(4-(2,2,2-trifluoroethyl)-1-piperazinyl)-4-quinolinamine]
7.45	Cc1c(-c2ccccn2)nc2c(Cl)cccc2c1Nc1cncc(N2CCOCC2)c1 [8-chloro-3-methyl-N-(5-(4-morpholinyl)-3-pyridinyl)-2-(2-pyridinyl)-4-quinolinamine]
1.61	Cc1ccncc1-c1nc2cc(F)cc(F)c2c(Nc2cc(N3CCOCC3)cnc2N2CCOCC2)c1C [N-(2,5-di-4-morpholinyl-3-pyridinyl)-5,7-difluoro-3-methyl-2-(4-methyl-3-pyridinyl)-4-quinolinamine]
47.9	Cc1c(-c2cc(-c3ccccc3)ccn2)nc2cc(F)cc(F)c2c1Nc1cc(N2CCOCC2)cnc1N1CCOCC1 [N-(2,5-di-4-morpholinyl-3-pyridinyl)-5,7-difluoro-3-methyl-2-(4-phenyl-2-pyridinyl)-4-quinolinamine]
34.1	Cc1c(N2CCN(C(=O)OC(C)(C)C)CC2)nc2cc(F)cc(F)c2c1Nc1cc(N2CCOCC2)cnc1N1CCOCC1 [tert-butyl 4-(4-((2,5-di-4-morpholinyl-3-pyridinyl)amino)-5,7-difluoro-3-methyl-2-quinolinyl)-1-piperazinecarboxylate]
81.6	Cc1c(N2CCN(C(=O)N(C)C)CC2)nc2cc(F)cc(F)c2c1N(C(=O)N(C)C)c1cncc(N2CCOCC2)c1 [4-(4-((dimethylcarbamoyl)(5-(4-morpholinyl)-3-pyridinyl)-amino)-5,7-difluoro-3-methyl-2-quinolinyl)-N,N-dimethyl-1-piperazinecarboxamide]
8.43	Cc1c(-c2cccnc2)nc2cc(F)cc(F)c2c1Nc1cc(N2CCOCC2)cnc1N1CCOCC1 [N-(2,5-di-4-morpholinyl-3-pyridinyl)-5,7-difluoro-3-methyl-2-(3-pyridinyl)-4-quinolinamine]
33.3	Cc1c(N2CCN(C(=O)C(C)C)CC2)nc2cc(F)cc(F)c2c1Nc1cncc(N2CCOCC2)c1 [5,7-difluoro-3-methyl-2-(4-(2-methylpropanoyl)-1-piperazinyl)-N-(5-(4-morpholinyl)-3-pyridinyl)-4-quinolinamine]
44.3	Cc1c(N2CCN[C@H](C)C2)nc2cc(F)cc(F)c2c1Nc1cncc(N2CCOCC2)c1 [5,7-difluoro-3-methyl-2-((3R)-3-methyl-1-piperazinyl)-N-(5-(4-morpholinyl)-3-pyridinyl)-4-quinolinamine]
33.4	Cc1c(N2CCN(S(=O)(=O)c3ccccc3)CC2)nc2cc(F)cc(F)c2c1Nc1cncc(N2CCOCC2)c1 [5,7-difluoro-3-methyl-N-(5-(4-morpholinyl)-3-pyridinyl)-2-(4-(phenylsulfonyl)-1-piperazinyl)-4-quinolinamine]
1.54	COc1ccc(-c2ncc(N3CCOCC3)cc2Nc2c(C)c(-c3ccccn3)nc3cc(F)cc(F)c23)cn1 [N-(5,7-difluoro-3-methyl-2-(2-pyridinyl)-4-quinolinyl)-6′-methoxy-5-(4-morpholinyl)-2,3′-bipyridin-3-amine]
40.7	Cc1c(N2CCN(CC(F)(F)F)CC2)nc2cc(F)cc(F)c2c1Nc1cncc(N2CCOCC2)c1 [5,7-difluoro-3-methyl-N-(5-(4-morpholinyl)-3-pyridinyl)-2-(4-(2,2,2-trifluoroethyl)-1-piperazinyl)-4-quinolinamine]
1.83	CCCN1CCN(c2nc3cc(F)cc(F)c3c(Nc3cc(N4CCOCC4)cnc3N3CCOCC3)c2C)CC1=O [4-(4-((2,5-di-4-morpholinyl-3-pyridinyl)amino)-5,7-difluoro-3-methyl-2-quinolinyl)-1-propyl-2-piperazinone]
